Among the data in ChEMBL document CHEMBL1140217, “Prolyl oligopeptidase inhibition by N-acyl-pro-pyrrolidine-type molecules” (J Med Chem, 2008) are IC50 values, retold here.

pIC50: −log10 of the molar value.

For the assay, the target named is T1, Prolyl endopeptidase (Rattus norvegicus, UniProt O70196).
T1 sequence (O70196 whole entry): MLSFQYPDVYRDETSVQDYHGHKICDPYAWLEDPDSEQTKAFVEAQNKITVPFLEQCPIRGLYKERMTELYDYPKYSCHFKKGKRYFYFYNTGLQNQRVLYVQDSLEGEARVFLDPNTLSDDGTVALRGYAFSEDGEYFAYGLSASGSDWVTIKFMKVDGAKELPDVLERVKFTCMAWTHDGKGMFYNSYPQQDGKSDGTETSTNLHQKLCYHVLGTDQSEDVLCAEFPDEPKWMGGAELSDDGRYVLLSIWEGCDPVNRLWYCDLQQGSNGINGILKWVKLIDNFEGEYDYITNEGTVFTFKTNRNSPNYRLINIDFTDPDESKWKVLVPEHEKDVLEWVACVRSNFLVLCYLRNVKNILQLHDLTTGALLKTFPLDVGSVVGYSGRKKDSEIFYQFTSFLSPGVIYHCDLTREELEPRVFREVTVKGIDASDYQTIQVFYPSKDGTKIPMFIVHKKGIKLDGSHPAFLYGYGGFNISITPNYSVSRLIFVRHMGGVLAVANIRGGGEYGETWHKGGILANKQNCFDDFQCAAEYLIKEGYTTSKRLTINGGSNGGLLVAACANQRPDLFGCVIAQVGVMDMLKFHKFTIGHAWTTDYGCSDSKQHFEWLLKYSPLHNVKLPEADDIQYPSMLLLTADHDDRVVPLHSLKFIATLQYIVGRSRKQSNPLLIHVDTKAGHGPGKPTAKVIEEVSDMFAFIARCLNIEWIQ
In words: Inhibition of POP in Sprague-Dawley rat brain homogenates. It is filed as tissue-based.
In general, pIC50 refers to the negative decadic logarithm of the IC50, by convention in mol/L. Compound `O=C([C@@H]1CCCN1C(=O)CCCn1c(=O)c(-c2ccccc2)nc2ccccc21)N1CCCC1` gave a pIC50 of 7.23.
As to `O=C([C@@H]1CCCN1C(=O)CCCN1C(=O)c2ccccc2C1=O)N1CCCC1`, the pIC50 is 7.40.
The compound `O=C([C@@H]1CCCN1C(=O)CCN1C(=O)c2ccccc2C1=O)N1CCCC1` showed a pIC50 of 8.52.
`CCCCCCCC(=O)N1CCC[C@H]1C(=O)N1CCCC1` showed a pIC50 of 7.32.
